Data as given in paper PMC9571303, “Development of Clinical Weekly-Dose Teriparatide Acetate Encapsulated Dissolving Microneedle Patch for Efficient Treatment of Osteoporosis” (Polymers, 2022).
Several values for one entry are separate records, joined by “and”; a condition that tells them apart may be missing. Equal entries are not always repeated. Where two headings read alike, the source gives them in different places.

Key:
[1] = TA activity after drying in CL-mimic conditions (RP-HPLC); type: physicochemical; conditions: droplets dried at 4 °C under vacuum (CL-mimic), reconstituted in PBS, RP-HPLC C18, UV, mean ± SD, n = 15
Method: TA activity was assessed via reverse-phase high-performance liquid chromatography (RP-HPLC) under CL-mimic conditions, in which TA undergoes a drying process from droplets of matric polymer with TA. TA polymer solutions were dispensed as droplets on a polyurethane film (SLA, Gumi, Korea) using a robotic dispenser (ML-5000X; Musashi Engineering, Inc., Tokyo, Japan) and dried at 4 °C under vacuum to mimic the conditions of the CL. Dried droplets were then dissolved in phosphate-buffered saline (PBS; Life Technologies, Carlsbad, CA, USA) for reconstitution and analyzed via RP-HPLC using a separation module (Waters e2695; Waters Corp., Milford, MA, USA) and a dual λ absorbance detector (Waters 2487′ Waters Corp., Milford, MA, USA). A C18 column (COSMOSIL; 5 μm, 150 × 4.6 mm) was used for HPLC. Mobile phase A was prepared as 10% acetonitrile (Sigma-Aldrich, St. Louis, MO, USA) and 90% 0.2 M sodium sulfate (Sigma-Aldrich, St. Louis, MO, USA) and phase B was prepared as 50% acetonitrile and 50% of 0.2 M sodium sulfate with a flow rate of 1.3 mL/min and detection wavelength of […].

[2] = In vivo pharmacokinetic analysis after TA delivery; set-up: species or system Sprague Dawley rats; conditions: SD rats; for half-life: male, Sprague Dawley, rat
Method: Six-week-old male Sprague Dawley rats (SD rats) were purchased from Young Bio Inc. (Seongnam, Korea) and allowed seven days for acclimation. Three groups of SD rats were used for the pharmacokinetic study. All the dorsal regions of the SD rats were shaved for application of the TA-DMN patches. Group 1 was administered a subcutaneous injection of a formulation containing 60.6 μg of TA into the central part of the back using a 27 G hypodermic needle (Becton Dickinson, Franklin Lakes, NJ, USA), and served as the positive control. Group 2 received one TA-DMN patch containing 61.4 ± 1.3 µg of TA. Group 3 received two TA-DMN patches containing 122.8 ± 2.6 µg of TA. A home-made shooting device was used to apply the TA-DMN patches on the backs of the SD rats, and a dressing (Tegaderm; 3M Health Care, St. Paul, MN, USA) was used to cover the patches. In addition, a self-adherent bandage wrap (Coban; 3M Health Care, St. Paul, MN, USA) was used to secure the patches.
At 0, 0.25, 0.5, 0.75, 1, 2, 3.5, 4, 5, 6, and 24 h after subcutaneous administration of TA in group 1, 100 μL of blood was taken into a Microvette (SARSTEDT; Nümbrecht, Germany) from the saphenous vein, which was exposed after a minor incision of the tail by a surgical blade. Blood samples were collected in the same manner at 0, 0.5, 1, 2, 3.5, 4, 5, 6, and 24 h after TA-DMN patch application in group 2, and at 0, 0.5, 1, 1.5, 3, 4, 5, 6, and 24 h after TA-DMN patch application in group 3. The collected blood was left at room temperature for 30 min and centrifuged using a microcentrifuge (Hanil, Dajeon, Korea) at 1000× g for 10 min to separate the plasma. All separated plasma samples were transferred to 1.5-mL Eppendorf tubes and stored at −70 °C. TA concentrations in rat plasma were determined via enzyme-linked immunosorbent assay (ELISA) using a TA pharmacokinetics ELISA kit (SB-07-043; Somru Bioscience, Charlottetown, PE, Canada) and a microplate reader (Perkin Elmer, Waltham, MA, USA). Based on the determined TA concentrations in rat plasma, the areas under the concentration curve (AUC) were computed using the trapezoid area calculation method, and BA was evaluated to analyze the pharmacokinetic profiles.

CC[C@H](C)[C@H](NC(=O)[C@H](CCC(=O)O)NC(=O)[C@H](CO)NC(=O)[C@@H](NC(=O)[C@@H](N)CO)C(C)C)C(=O)N[C@@H](CCC(N)=O)C(=O)N[C@@H](CC(C)C)C(=O)N[C@@H](CCSC)C(=O)N[C@@H](Cc1cnc[nH]1)C(=O)N[C@@H](CC(N)=O)C(=O)N[C@@H](CC(C)C)C(=O)NCC(=O)N[C@@H](CCCCN)C(=O)N[C@@H](Cc1cnc[nH]1)C(=O)N[C@@H](CC(C)C)C(=O)N[C@@H](CC(N)=O)C(=O)N[C@@H](CO)C(=O)N[C@@H](CCSC)C(=O)N[C@@H](CCC(=O)O)C(=O)N[C@@H](CCCN=C(N)N)C(=O)N[C@H](C(=O)N[C@@H](CCC(=O)O)C(=O)N[C@@H](Cc1c[nH]c2ccccc12)C(=O)N[C@@H](CC(C)C)C(=O)N[C@@H](CCCN=C(N)N)C(=O)N[C@@H](CCCCN)C(=O)N[C@@H](CCCCN)C(=O)N[C@@H](CC(C)C)C(=O)N[C@@H](CCC(N)=O)C(=O)N[C@@H](CC(=O)O)C(=O)N[C@H](C(=O)N[C@@H](Cc1cnc[nH]1)C(=O)N[C@@H](CC(N)=O)C(=O)N[C@@H](Cc1ccccc1)C(=O)O)C(C)C)C(C)C [TA, teriparatide acetate]
TA activity after drying ([1]; TA polymer solution (HA) with 10% trehalose): 75.4 ± 8.3%
TA activity after drying ([1]; TA polymer solution (HA) without trehalose): 59.0 ± 3.6%
Tmax ([2]; Group 1: subcutaneous injection, 60.6 μg TA, plasma ELISA, n = 3): 18 min
BA ([2]; Group 1: subcutaneous injection, 60.6 μg TA, positive control (reference), n = 3): 100% and 100 ± 10.5%
half-life ([2]; plasma, after all three TA administration methods (SC, one patch, two patches), read-out: half-life t½ of TA in plasma (converted)): ~48 min
half-life ([2]; sc, Group 1: subcutaneous injection, 60.6 μg TA, plasma ELISA, n = 3, read-out: t1/2 (converted)): 48 min
